Experimental data taken from patent US20180235993A1 (priority 2000, published 2018).
Like-named read-outs stand apart in the source and are kept apart here.

Legend:
BVDV (strain NADL) = assay: Cell Protection Assay (CPA); type: cell-based, Bovine Viral Diarrhea virus
Procedure: The assay was performed essentially as described by Baginski, S. G.; Pevear, D. C.; Seipel, M.; Sun, S. C. C.; Benetatos, C. A.; Chunduru, S. K.; Rice, C. M. and M. S. Collett “Mechanism of action of a pestivirus antiviral compound” PNAS USA 2000, 97(14), 7981-7986. MDBK cells (ATCC) were seeded onto 96-well culture plates (4,000 cells per well) 24 hours before use. After infection with BVDV (strain NADL, ATCC) at a multiplicity of infection (MOI) of 0.02 plaque forming units (PFU) per cell, serial dilutions of test compounds were added to both infected and uninfected cells in a final concentration of 0.5% DMSO in growth medium. Each dilution was tested in quadruplicate. Cell densities and virus inocula were adjusted to ensure continuous cell growth throughout the experiment and to achieve more than 90% virus-induced cell destruction in the untreated controls after four days post-infection. After four days, plates were fixed with 50% TCA and stained with sulforhodamine B. The optical density of the wells was read in a microplate reader at 550 nm. The 50% effective concentration (EC50) values were defined as the compound concentration that achieved 50% reduction of cytopathic effect of the virus. FIGS. 4 and 5 provide a graphical illustration of the methodology used to arrive at the 50% effective concentration (EC50) values for β-D-2′-CH3-riboG and ribavirin. FIG. 6 compares the results of the CPA for β-D-2′-CH3-riboG, β-D-2′-CH3-riboC, riboU, β-D-2′-CH3-riboA and ribavirin

BVDV (NADL strain) = assay: Yield Reduction Assay; type: cell-based, Bovine Viral Diarrhea virus
Procedure: The assay was performed as described by Baginski, S. G.; Pevear, D. C.; Seipel, M.; Sun, S. C. C.; Benetatos, C. A.; Chunduru, S. K.; Rice, C. M. and M. S. Collett “Mechanism of action of a pestivirus antiviral compound” PNAS USA 2000, 97(14), 7981-7986, with minor modifications. Briefly, MDBK cells were seeded onto 24-well plates (2×10^5 cells per well) 24 hours before infection with BVDV (NADL strain) at a multiplicity of infection (MOI) of 0.1 PFU per cell. Serial dilutions of test compounds were added to cells in a final concentration of 0.5% DMSO in growth medium. Each dilution was tested in triplicate. After three days, cell cultures (cell monolayers and supernatants) were lysed by three freeze-thaw cycles, and virus yield was quantified by plaque assay. Briefly, MDBK cells were seeded onto 6-well plates (5×10^5 cells per well) 24 h before use. Cells were inoculated with 0.2 mL of test lysates for 1 hour, washed and overlaid with 0.5% agarose in growth medium. After 3 days, cell monolayers were fixed with 3.5% formaldehyde and stained with 1% crystal violet (w/v in 50% ethanol) to visualize plaques. FIG. 9 is a graphical illustration of the results from the Yield Reduction Assay. FIG. 8 is an image of BVDV yield reduction in the presence of increasing concentrations of β-D-2′-CH3-riboC.

in vitro [1] = assay: in vitro
in vitro [2] = details: cattle
YFV-17D = assay: microbe, parasite or virus in culture; type: cell-based, Yellow fever virus vaccine strain 17D
[3] = Cytotoxicity assay (sulforhodamine B, CC50), Human Hepatoma; type: cell-based; details: human; for CC50 at 4 days: 4 days incubation; for EC50 at 4 days: Table 13
Procedure: (§1) Cells were seeded at a rate of between 5×10^3 and 5×10^4/well into 96-well plates in growth medium overnight at 37° C. in a humidified CO2 (5%) atmosphere. New growth medium containing serial dilutions of the drugs was then added. After incubation for 4 days, cultures were fixed in 50% TCA and stained with sulforhodamineB. The optical density was read at 550 nm. The cytotoxic concentration was expressed as the concentration required to reduce the cell number by 50% (CC50).

[4] = tested on: PICO (Cosxackie B1 and Polio Sabin); assay: organism not typed; type: cell-based; details: Vero, read-out: Comparative Antiviral Activity EC50 PICO
BVDV = assay: Plaque Reduction Assay; type: cell-based, Bovine Viral Diarrhea virus
Procedure: For each compound the effective concentration was determined in duplicate 24-well plates by plaque reduction assays. Cell monolayers were infected with 100 PFU/well of virus. Then, serial dilutions of test compounds in MEM supplemented with 2% inactivated serum and 0.75% of methyl cellulose were added to the monolayers. Cultures were further incubated at 37° C. for 3 days, then fixed with 50% ethanol and 0.8% Crystal Violet, washed and air-dried. FIG. 7 is a graphical illustration of the results from the Plaque Reduction Assay. FIG. 8 is an image of BVDV plaque formation in the presence of increasing concentrations of β-D-2′-CH3-riboU.

[5] = Cytotoxicity assay (sulforhodamine B, CC50), MDBK; type: cell-based; details: cattle; MDBK cells, 4 days incubation
Procedure: as §1

[6] = tested on: Human bone marrow cells (BFU-E); assay: Human bone marrow toxicity, BFU-E clonogenic assay; type: cell-based; details: human bone marrow colony formation, 14 to 18 days
Description: (§2) Human bone marrow cells were collected from normal healthy volunteers and the mononuclear population was separated by Ficoll-Hypaque gradient centrifugation as described previously by Sommadossi J-P, Carlisle R. “Toxicity of 3′-azido-3′-deoxythymidine and 9-(1,3-dihydroxy-2-propoxymethyl)guanine for normal human hematopoietic progenitor cells in vitro” Antimicrobial Agents and Chemotherapy 1987; 31:452-454; and Sommadossi J-P, Schinazi R F, Chu C K, Xie M-Y. “Comparison of cytotoxicity of the (−)- and (+)-enantiomer of 2′,3′-dideoxy-3′-thiacytidine in normal human bone marrow progenitor cells” Biochemical Pharmacology 1992; 44:1921-1925. The culture assays for CFU-GM and BFU-E were performed using a bilayer soft agar or methylcellulose method. Drugs were diluted in tissue culture medium and filtered. After 14 to 18 days at 37° C. in a humidified atmosphere of 5% CO2 in air, colonies of greater than 50 cells were counted using an inverted microscope. The results in Table 4 are presented as the percent inhibition of colony formation in the presence of drug compared to solvent control cultures.

[7] = tested on: Human bone marrow cells (CFU-GM); assay: Human bone marrow toxicity, CFU-GM clonogenic assay; type: cell-based; details: read-out: IC50 CFU-GM
Description: as §2

HIV-1 = assay: Comparative antiviral activity (EC50), HIV-1; type: cell-based; details: Human immunodeficiency virus 1; Table 11
VSV = assay: microbe, parasite or virus in culture; type: cell-based; details: Vesicular stomatitis virus, read-out: Comparative Antiviral Activity EC50 VSV
[8] = tested on: Bovine Viral Diarrhea virus (BVDV); assay: microbe, parasite or virus in culture; type: cell-based
HepG2 cells = assay: Mitochondria toxicity assay (L-lactic acid assay); type: cell-based; details: 4 day drug exposure
Procedure: HepG2 cells were cultured in 12-well plates as described above and exposed to various concentrations of drugs as taught by Pan-Zhou X-R, Cui L, Zhou X-J, Sommadossi J-P, Darley-Usmer V M. “Differential effects of antiretroviral nucleoside analogs on mitochondrial function in HepG2 cells” Antimicrob Agents Chemother 2000; 44:496-503. Lactic acid levels in the culture medium after 4 day drug exposure was measured using a Boehringer lactic acid assay kit. Lactic acid levels were normalized by cell number as measured by hemocytometer count.

[9] = Bovine viral diarrhea virus isolates and strains, 96 h, MDBK cells infected with BVDV, 50% reduction of cytopathic effect, four days, read-out: EC50
[10] = Bovine viral diarrhea virus isolates and strains, Table 13, BVDV, read-out: Cell Protection (EC50)
[11] = Bovine viral diarrhea virus isolates and strains, Table 13, BVDV
[12] = Yellow fever virus, read-out: Comparative Antiviral Activity EC50 YFV
[13] = Huh7 cells (human hepatoma), Huh7 cells
[14] = Bovine viral diarrhea virus isolates and strains, Table 13, BVDV, 90% virus suppression, read-out: Plaque Reduction (EC90)
[15] = Bovine viral diarrhea virus isolates and strains, read-out: Comparative Antiviral Activity EC50 BVDV

| Structure (SMILES) | EC50 (BVDV (strain NADL); [9]) | EC50 (BVDV (strain NADL); [10]) | Yield Reduction 6 log10 reduction (μM) (BVDV (NADL strain)) | EC90 (BVDV (NADL strain); [11]) | CC50 (in vitro [1]; African green monkey) | CC50 (in vitro [1]; hamster) | CC50 (in vitro [2]) | EC50 (YFV-17D; [12]) | EC50 at 4 days [3, 13] | EC50 [4] | EC90 (BVDV; [14]) | IC50 ([6]; Bone marrow cell) | IC50 ([7]; Homo sapiens, CFU-GM) | CC50 (in vitro [1]) | CC50 (in vitro [1]; human) | EC50 (HIV-1) | EC50 (VSV) | EC50 [8, 15] | Conc. for 6-log Reduction (BVDV (NADL strain)) | other results |
| --- | --- | --- | --- | --- | --- | --- | --- | --- | --- | --- | --- | --- | --- | --- | --- | --- | --- | --- | --- | --- |
| NC(=O)c1ncn([C@@H]2O[C@H](CO)[C@@H](O)[C@H]2O)n1 [Ribavirin, reference compound] | > 3 µM | > 3 µM | toxic | > 20 µM | 11 µM | 50 µM | 5 µM | 30 µM | 20 µM | > 30 µM | > 200 µM | ~1 µM | ~5 µM | – | – | – | – | – | – | CC50 at 4 days ([3]; HepG2 cells (human hepatoma), HepG2 cells, read-out: CC50 HepG2): 150 µM; CC50 at 4 days ([3]; Huh7 cells (human hepatoma), Huh7 cells, read-out: CC50 Huh7): 25 µM; CC50 at 4 days [5]: 5 µM |
| C[C@@]1(n2cnc3c(N)ncnc32)O[C@H](CO)[C@H](O)C1O (stereo partly drawn) [β-D-1′-CH3-riboA, 1′-C-methylriboadenine] | – | – | – | – | > 100 µM | 200 µM | – | 7 µM | – | 51 µM | – | – | – | > 100 µM | 18 µM | > 18 µM | > 100 µM | 10 µM | – | – |
| CC1(O)[C@@H](O)[C@@H](CO)O[C@H]1n1cnc2c(N)ncnc21 (stereo partly drawn) [β-D-2′-CH3-riboA, 2′-C-methylriboadenine] | 2 µM | 2 µM | 9 μM | < 2 µM | 22 µM | 22 µM | 20 µM | 0.2 µM | 50 µM | 5 µM | < 3 µM | > 100 µM | > 100 µM | 75 µM | 6.6 µM | > 6.6 µM | > 100 µM | 0.1 µM | 9 μM | EC90 (BVDV; Bovine viral diarrhea virus isolates and strains, 72 h, concentration to obtain 90% virus suppression, 3 days, read-out: EC90): < 3 µM |
| C[C@@]1(O)[C@H](O)[C@@H](CO)O[C@H]1n1ccc(N)nc1=O [β-D-2′-CH3-riboC] | – | – | 20 μM | – | – | – | – | – | – | – | – | – | – | – | – | – | – | – | 20 μM | EC50 (BVDV (strain NADL); read-out: Cell Protection (EC50)): 2 µM; EC50 (BVDV (strain NADL); read-out: EC50): 2 µM; EC90 (BVDV (NADL strain)): < 4 µM; CC50 (various cell systems): > 100 µM; CC50 (various cell systems; read-out: YFV CC50, Table 12, reduce the viability of cells by 50%, YFV-BHK system): > 100 µM; EC50 (YFV-17D; Table 12, reduce the plaque number by 50%, YFV-BHK, read-out: YFV EC50): 70 µM; EC90 (BVDV; read-out: EC90): < 9 µM; EC90 (BVDV; read-out: Plaque Reduction (EC90)): < 9 µM; EC50 ([8]; read-out: BVDV EC50): 3.7 µM; CC50 (MDBK cells): 100 µM; IC50 [6]: > 10 µM; lactate (HepG2 cells; Conc. 1 μM): 2.52 mg/10^6 cell; lactate % of Control (HepG2 cells; Conc. 1 μM): 115.3%; lactate (HepG2 cells; Conc. 10 μM): 2.36 mg/10^6 cell; lactate % of Control (HepG2 cells; Conc. 10 μM): 107.9%; lactate (HepG2 cells; Conc. 50 μM): 2.26 mg/10^6 cell; lactate % of Control (HepG2 cells; Conc. 50 μM): 103.4%; lactate (HepG2 cells; Conc. 100 μM): 2.21 mg/10^6 cell; lactate % of Control (HepG2 cells; Conc. 100 μM): 101.2%; IC50 ([7]; human bone marrow colony formation, 14 to 18 days): > 10 µM |
